The source of these data is patent US20240252677A1, “ONE-COMPONENT DELIVERY SYSTEM FOR NUCLEIC ACIDS” (The Trustees of the University of Pennsylvania, priority 2021, published 2024).

Read-outs that look alike come from different tables or passages of the source.

Data set [1] in a line: pKa measurements of individual IAJD molecules by titration. Type of data set: physicochemical. Conditions: ethanol saturated with NaCl, titrated with 0.1 M aqueous HCl; Table 15; individual IAJD molecule, titration. The procedure, abridged:
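pKa derived by half-equivalence-point analysis of a pH-meter titration curve: 0.1 M HCl added in 7.5 μL increments to a 1.5 mg/mL solution of each molecule in ethanol saturated with NaCl.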

Data set [2] deals with spleen. Kind of data set: In vivo mRNA delivery, IVIS imaging of organs: spleen. Also on record: species or system mice; key to Organs with luminescence: spleen: strong: Strong meant the luminescence intensity in that organ was relatively high, compared to other organs; weak: Weak meant the luminescence intensity in that organ was relatively low, compared to other organs.
For data set [3] the following is noted: Table 16, IAJDs marked a (Zhang et al., J. Am. Chem. Soc. 2021); IAJD 4 mg/mL, Luc-mRNA 0.10 mg/mL, acetate buffer 10 mM pH 4.0; cited from earlier work.
Data set [4] concerns HEK293T cells. Conditions: Table 16, IAJDs marked a (Zhang et al., J. Am. Chem. Soc. 2021); HEK 293T cells, 125 ng/well, n=3; cited from earlier work.
Data set [5] can be described thus: Dimensions (size, PDI) of DNPs co-assembled from IAJDs and Luc-mRNA by DLS. It is filed as physicochemical. The procedure, abridged: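 Hydrodynamic size and PDI were read by dynamic light scattering at 23 °C, 175° backscatter, 633 nm. Particles formed by fast injection of ethanolic IAJD stock (80 mg/mL) into nucleoside-modified luciferase mRNA (stock 4.0 mg/mL) in 10 mM acetate pH 4.0, 5 s vortex.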

The test system of data set [6] is BALB/c mice. Conditions: cited from earlier work.
[7] abbreviates: Table 12, DNPs, IAJD 4 mg/mL + Luc-mRNA 0.10 mg/mL, acetate buffer 10 mM pH 4.0.
The mark [8] stands for this setting: Table 13, DNPs, IAJD 4 mg/mL + Luc-mRNA 0.10 mg/mL, acetate buffer pH 4.0.
Where [9] appears, read: Table 14, DNPs, IAJD 4 mg/mL + Luc-mRNA 0.10 mg/mL, acetate buffer pH 4.0.
[10] abbreviates: Table 17, DNPs used in vivo, IAJD 4 mg/mL, Luc-mRNA 0.10 mg/mL, acetate pH 4.0.

Broadly, the pKa is the pH at which an ionisable group is half protonated. On to `CCCCCCCCCCCCOc1cc(COC(=O)CCCN2CCN(CCO)CC2)cc(OCCCCCCCCCCCC)c1` [IAJD 71, 3,5-Bis(dodecyloxy)benzyl 4-(4-(2-hydroxyethyl)piperazin-1-yl)butanoate], for which the pKa in data set [1] is 6.38. Further, the “Organs with luminescence: spleen (weak/strong)” value in data set [2] (Table 14, imaging 5 h after injection) is recorded as “spleen (strong)”. Besides, the “Organs with luminescence: spleen” value in data set [2] (Table 17, mice, IVIS, 4-6 h after injection, intensity relative to other organs) was “spleen (strong)”. Besides, the PDI in data set [3], in data set [5] (setting [7]), in data set [5] (setting [8]), in data set [5] (setting [9]) and in data set [5] (setting [10]) was 0.451 throughout. Moreover, the “Size (d, nm)” value in data set [3], in data set [5] (setting [7]), in data set [5] (setting [8]), in data set [5] (setting [9]) and in data set [5] (setting [10]) was 237 nm each time. Besides, the Luminescence in data set [4] is 473,548. Also, the “In vivo activity (total flux, p/s)” value is 3.79 × 10^7 p/s in data set [6] (Table 18, symmetric IAJDs, results available in the literature) and 3.79 × 10^7 p/s in data set [6] (Table 20, corresponding symmetric IAJDs (literature per Table 18)).
